Data from article PMC7125190, “Native/citrullinated LL37-specific T-cells help autoantibody production in Systemic Lupus Erythematosus” (Scientific Reports, 2020).
Non-standard residues stand in square brackets, D forms with d. Residues, ends and D or L forms follow the SMILES beside them. No end group written: not given here. Cit = NC(=O)NCCC[C@H](N)C(=O)O

Columns and labels:
HLA-DR15 (DRB1*1501) = target: T1, HLA-DR15 (DRB1*1501) (Homo sapiens, UniProt P01903+P01911); assay: HLA-DR folding assay (LOCI/AlphaScreen) peptide binding; conditions: axis "Peptide (nM)", LOCI, 48 h at 18 °C, L243 acceptor beads, five-fold titrations, one representative experiment of two shown, read-out: average Ko
T1 construct: made in house; host or cells: E. coli
Procedure: (§1) Human recombinant HLADRA1*01:01, HLA-DRB1*01:01, and HLA-DRB1*15:01 were expressed in E. coli and purified in a series of liquid chromatography based steps[71].
(§2) We performed peptide-MHC binding assays by two different protocols by ImmunAware, Denmark and Benaroya Institute (USA). In the first protocol, binding was measured using a Luminescent Oxygen Channelling Immunoassay (LOCI), marketed by Perkin Elmer as AlphaScreen[72]. This is a nonradioactive bead-based homogenous proximity assay, where the donor beads containing a photosensitizer compound upon excitation with light at a 680 nm wavelength, converts ambient oxygen to energy-rich, short-lived singlet oxygen; that is transferred to a acceptor beads in close proximity only. The acceptor beads can respond to singlet oxygen with a luminescence/ fluorescence cascade leading to an amplified signal in the 520–620 nm range. As one tag binding to the donor beads: a biotin group engineered unto the HLA β chain. As the other tag binding to the acceptor beads: conformation-dependent HLA class II specific antibody (L243). Thus, only when a fully folded complex is present will the donor and acceptor beads come in sufficient close proximity and give a measurable signal. Biotinylated recombinant HLA class II molecules were diluted from an 8 M urea buffer into a folding buffer (PBS, 20% glycerol, Protease inhibitor mix) with peptide concentrations ranging from 0.13 nM to 10,000 nM. The analysed peptides were tested in 5-to-8 five-fold concentration titrations spanning from 20 μM to 0.3 nM. The reaction mixtures were incubated for 48 h at 18 °C to allow for peptide-HLA complex formation reaching steady state. After incubation, 15 μL of the folding mixture was transferred to a 384-well Optiplate (PerkinElmer) followed by addition of 15 μL of a solution containing L243 acceptor beads and streptavidin donor beads (final concentration of beads was 5 μL/mL). The plates were incubated over night at 18 °C, and then measured in enVisionTM, Perkin Elmer. Assay signals measured in […] were plotted against the offered peptide concentrations, and analyzed by non-linear regression using GraphPad Prism. […]
(§3) Figure S7. […] (A,B) Binding of LL37-peptides to HLA-DR1 (DRB1*0101) and to HLA-DR15 (DRB1*1501) was evaluated by a HLA-DR folding assays and detected by Luminescent Oxygen Channelling Immunoassay (LOCI) described in MM. […] (C-F) Binding to DR16 (DRB1*1601), DRB5 (HLA-DRB5*0101), DR4 (HLA-DRB1*0401) and DR10 (DRB1*1001) was evaluated by peptide competitionassay as in MM, and evaluated fluorimetrically. […]

HLA-DR1 (DRB1*0101) = target: T2, HLA-DR1 (DRB1*0101) (Homo sapiens, UniProt P01903+P01911, A100R/D57E/F55L/F60I/F76Y/I96L/L162R/M171V/P40L/Q125E/R42F/V115G/Y59C); assay: as above; conditions: axis "Peptide (nM)", LOCI, 48 h at 18 °C, L243 acceptor beads, five-fold titrations, one representative experiment of two shown, read-out: average Ko
T2 construct: made in house; host or cells: E. coli
Procedure: as §1, §2, §3

[1] = system: SLE/CLE CD4+ T-cell clones; assay: T-cell clone reactivity (BrdU, HLA-matched B-LCLs pulsed with peptide); format: cell-based, human; conditions: clones from one SLE and one CLE patient
Procedure: PBMCs were purified, from EDTA-treated blood, on Ficoll-Hypaque (Pharmacia Fine Chemicals, Uppsala, Sweden) were incubated (10^5 cells/well) in 96-well-flat-bottom-microplates (BD) in T cell-medium (RPMI 1640, 10% heat-inactivated human serum, HS, Gibco), 2 mM L-glutamine, 10 U/mL penicillin, and 100 μg/mL streptomycin), with/without peptides. We performed assays on fresh cells, within 1-to-3 hours from collection, or on PBMCs frozen in 90% FCS-10%DMSO, whose viability we assessed by Trypan blue exclusion, at inverted microscope. Recovery of live cells was between 65 and 85 % of the frozen number. At day3 and 5, BrdU was added (1 μg/mL). BrdU-incorporation was detected by APC-labeled anti-BrdU antibody (BD Pharmingen), after surface staining by flow cytometry. Internal control for T-cell viability and proliferation was PHA treatment (2 μg/mL). SI for proliferation was calculated by dividing percent of BrdU-staining in the presence of each peptide used to stimulate cells by percent of BrdU-staining in the absence of peptide stimulation. SI for proliferation was considered positive when>3. This cut-off was obtained by calculating the mean+2DS [1.5 + 2 (0.6)] (of the stimulation indexes calculated as above) of the proliferation of HD. […]
Assays were repeated twice with each patient. […] Ror-ɣt and Bcl-6 were measured by intracellular staining and flow cytometry, after 48 hours culture with LL37 or control antigen, and were analyzed on CD38highCD4 T-cells. […]
PBMCs were stimulated (2x10^6 cells/mL) with LL37 for 7 days and re-stimulated (10 days) with LL37-pulsed (10 µg/mL) autologous-ɣ-irradiated-(30Gy)-PBMCs in T-cell medium in the presence of human/recombinant (hr)IL-2 (Boehringer-Mannheim, Indian, USA). T cell lines-specificity was analyzed by using peptide-pulsed (0.1-10 µg/mL) autologous-irradiated PBMCs (30Gy) or lymphoblastoid-cell-lines (B-LCLs) (150Gy, 33). […]
analyzed by flow-cytometry (after staining by BrdU-detection kit, BD Pharmingen). […] Clones reactivity and HLA-restriction were analyzed using HLA-matched-homozigous B-LCLs, pulsed with […]

CD3+CD4+ T-cells = assay: T-cell proliferation assay (BrdU incorporation of PBMC); format: cell-based, human; conditions: SLE/CLE PBMC, day 6, BrdU
Procedure: PBMCs were purified, from EDTA-treated blood, on Ficoll-Hypaque (Pharmacia Fine Chemicals, Uppsala, Sweden) were incubated (10^5 cells/well) in 96-well-flat-bottom-microplates (BD) in T cell- […]
penicillin, and 100 μg/mL streptomycin), with/without peptides. We performed assays on fresh cells, within 1-to-3 hours from collection, or on PBMCs frozen in 90% FCS-10%DMSO, whose viability we assessed by Trypan blue exclusion, at inverted microscope.
At day3 and 5, BrdU was added (1 μg/mL). BrdU-incorporation was detected by APC-labeled anti-BrdU antibody (BD Pharmingen), after surface staining by flow cytometry. Internal control for T-cell viability and proliferation was PHA treatment (2 μg/mL). SI for proliferation was calculated by dividing percent of BrdU-staining in the presence of each peptide used to stimulate cells by percent of BrdU-staining in the absence of peptide stimulation. SI for proliferation was considered positive when>3. This cut-off was obtained by calculating the mean+2DS [1.5 + 2 (0.6)] (of the stimulation indexes calculated as above) of the proliferation of HD.
Basal % of proliferation was set using, as reference, an isotype matched antibody staining (APC- […]
Assays were repeated twice with each patient. In rare cases in which background proliferation exceed antigen-specific proliferation the assay was repeated three times. Concomitant phenotype analysis of LL37-responder T-cells included staining for CD4, CD8, CXCR5, PD1, ICOS, CCR6. […]

[2] = system: serum antibodies (anti-native LL37/anti-cit-LL37); assay: ELISA for autoantibody detection in sera; format: binding, human; conditions: for Antibody response to control peptides in SLE: SLE sera, ELISA OD
Procedure: Anti-native/cit-LL37, other antigen antibodies (anti-DNA and anti-RNA), and total anti-human IgG were measured by ELISA as described. Briefly, 96-well flat-bottom plates (Non-Binding surface polystyrene, Corning, USA) are coated with 2 μg/mL of native LL37/cit-LL37 or control proteins or human DNA or human RNA[9] or anti-human IgG antibody (Sigma) in carbonate buffer (0.1 M NaHCHO3, pH 9) for 2 hours (or over night) and washed four times with PBS 0.1% Tween-20. This washing buffer was used for washing at all steps. The blocking buffer containing 2% bovine serum albumin (BSA, Sigma) in PBS was used for at least 1 hour (or over night) to saturate unspecific binding sites. After washing, sera were diluted at various concentrations (usually 1:100 or 1:200) in PBS 2% BSA (cell culture supernatants were diluted 1:2, 1:4 or 1:10) followed by 1 hour incubation with a horseradish peroxidase–conjugated (HRP) goat anti-human IgG (Sigma-Aldrich), diluted 1:10,000 in PBS. The color was developed for 5 minutes with 3,3’,5,5’-tetramethylbenzidine (TMB) substrate (Sigma-Aldrich). The reaction was stopped by adding 50 μl of 2 N H2SO4, and absorbance determined at 450 nm with a reference wavelength of 540 nm. Anti-dsDNA in sera of lupus patients were detected by the standard clinical test Kallestad Crithidia luciliae Complete Kits for detection and semi-quantitation of autoantibodies to native DNA (nDNA) antigens by indirect fluorescence antibody (IFA) procedure. ELISA for detection of anti-tetanus antibodies (anti-TT) was from Abnova (Taiwan).

DNA = conditions: cited from earlier work

In the case of `CC[C@H](C)[C@H](NC(=O)[C@H](CCCCN)NC(=O)[C@H](CCC(=O)O)NC(=O)[C@H](CCCCN)NC(=O)[C@H](CO)NC(=O)[C@H](CCCCN)NC(=O)[C@H](CCCNC(N)=O)NC(=O)[C@H](Cc1ccccc1)NC(=O)[C@H](Cc1ccccc1)NC(=O)[C@H](CC(=O)O)NC(=O)CNC(=O)[C@H](CC(C)C)NC(=O)[C@@H](N)CC(C)C)C(=O)NCC(=O)N[C@@H](CCCCN)C(=O)O` [cit-P1] (H-LLGDFF[Cit]KSKEKIGK-OH), the Kd (HLA-DR15 (DRB1*1501)) is reported as 3440 nM.
`CC(C)C[C@H](NC(=O)[C@H](Cc1ccccc1)NC(=O)[C@H](CC(=O)O)NC(=O)[C@@H](N)CCCCN)C(=O)N[C@@H](CCCNC(N)=O)C(=O)N[C@@H](CC(N)=O)C(=O)N[C@@H](CC(C)C)C(=O)N[C@H](C(=O)N1CCC[C@H]1C(=O)N[C@@H](CCCNC(N)=O)C(=O)N[C@H](C(=O)N[C@@H](CCC(=O)O)C(=O)N[C@@H](CO)C(=O)O)[C@@H](C)O)C(C)C` [cit-P7] (H-KDFL[Cit]NLVP[Cit]TES-OH) gave a Kd (HLA-DR1 (DRB1*0101)) of 305 nM.
For “CPKYVKQNTLKLATG [HA306–320, promiscuously presented peptide derived from the hemoagglutinin protein of Influenza A, reference compound]”, the “T-cell clone reactivity” value [1] was “did not cross-react”.
For “GIINTLQKYYCRVRGGRCAVLSCLPKEEQIGKCSTRGRKCCRRKK [HBD3, control unrelated AMP human β-defensin-3, reference compound]”, the “T-cell response to control or short peptides” value (CD3+CD4+ T-cells) was “not significant”.
Work on KDFLRNLVPRTES [P7] yielded a Kd (HLA-DR1 (DRB1*0101)) of 60 nM.
Compound LLGDFFRKSKEKIGK [P1] has a Kd (HLA-DR15 (DRB1*1501)) of 700 nM.
For “SETR(cit)PVLNR(cit)LFDKIR(cit)QVIR(cit)KEFEKGIKEKSKR(cit)FFDGLL [cit-REV, citrullinated REV peptide, reference compound]”, the “RA sera with antibody reactivity” value ([2]; RA sera, 14 of 70) was 20% and the “Antibody response to control peptides in SLE” value [2] was “negative”.
For “SETRPVLNRLFDKIRQVIRKEFEKGIKEKSKRFFDGLL [REV, reference compound]”, the “T-cell response to control or short peptides” value (CD3+CD4+ T-cells) is given as “did not elicit T-cell responses”, the “Antibody response to control peptides in SLE” value [2] is given as “negative” and the “DNA-binding activity” value (DNA) is given as “retains DNA-binding activity”.
